Values of other authors, collected in patent US20080031951A1, “Compositions and methods for the inhibition of phospholipase A2” (priority 2005, published 2008).

Assays:
[1] = molecular target: T1, porcine pancreatic group IB sPLA2 / M-type receptor (Sus scrofa, UniProt P00592); settings: mouse cells expressing the M-type receptor; read-out: IC50, block of binding of porcine pancreatic group IB sPLA2 to M-type receptor
T1 construct: host or cells: mouse cells expressing the M-type receptor

[2] = molecular target: group X sPLA2 / M-type receptor; settings: mouse cells expressing the M-type receptor; read-out: IC50, block of binding of group X sPLA2 to M-type receptor
[3] = tested on: PGE2 production in rat gastric epithelial cells; settings: induced by TGF-α and IL-1, rat gastric epithelial cells
[4] = tested on: septic shock; settings: LPS injection, wild-type mice
[5] = tested on: colitis; settings: rats, dextran sulfate- and trinitrobenzene sulfonic acid-induced
[6] = tested on: rheumatoid arthritis
[7] = tested on: asthma
[8] = molecular target: T2, hGIIA (Homo sapiens, UniProt P14555); settings: more potent than LY311727
[9] = tested on: release of thromboxane A2 triggered by exogenously added hGIIA; settings: guinea pig BAL fluids containing macrophages, eosinophils and epithelial cells
[10] = tested on: sPLA2 activity; settings: guinea pig model of ARDS
[11] = tested on: toxoplasmosis; settings: injection, murine toxoplasmosis model
[12] = tested on: hyperalgesia; settings: lumbar intrathecal administration, 3 rat models of hyperalgesia
[13] = molecular target: T2, hGIIA; design: host or cells: transgenic mice overexpressing hGIIA, blood; settings: intravenous administration, transgenic mice overexpressing hGIIA
[14] = tested on: sepsis and organ failure; settings: humans with sepsis and organ failure
[15] = tested on: intestine injury following ischemia and reperfusion; settings: rats, oral administration
[16] = tested on: ear edema; settings: mice, tetracenoylphorbol-13-acetate induced
[17] = molecular target: mGIIA (Mus musculus, UniProt P31482)
[18] = molecular target: mGIID (Mus musculus, UniProt Q9WVF6)
[19] = molecular target: mGIIE (Mus musculus, UniProt Q9QUL3)
[20] = molecular target: mGV (Mus musculus, UniProt P97391)
[21] = molecular target: mGX (Mus musculus, UniProt Q9QXX3)
[22] = tested on: pleurisy; settings: rat, carageenin-induced pleurisy

T2 sequence (P14555 21-144): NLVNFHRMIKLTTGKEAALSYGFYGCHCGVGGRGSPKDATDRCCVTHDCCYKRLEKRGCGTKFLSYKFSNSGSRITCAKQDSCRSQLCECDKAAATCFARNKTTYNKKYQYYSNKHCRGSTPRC
Chain of mGX (Q9QXX3 29-151): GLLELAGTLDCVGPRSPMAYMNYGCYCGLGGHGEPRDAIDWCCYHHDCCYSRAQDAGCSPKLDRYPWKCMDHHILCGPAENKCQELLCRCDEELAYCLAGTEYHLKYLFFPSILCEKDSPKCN
Chain of mGIID (Q9WVF6 20-144): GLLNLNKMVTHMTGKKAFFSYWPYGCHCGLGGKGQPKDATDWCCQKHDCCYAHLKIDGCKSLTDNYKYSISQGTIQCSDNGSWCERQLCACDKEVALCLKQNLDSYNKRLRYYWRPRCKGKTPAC
Chain of mGIIA (P31482 22-146): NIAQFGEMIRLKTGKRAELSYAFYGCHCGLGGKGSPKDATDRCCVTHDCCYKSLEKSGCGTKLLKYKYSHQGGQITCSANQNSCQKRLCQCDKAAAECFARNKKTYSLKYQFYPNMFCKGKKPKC
T1 sequence (P00592 23-146): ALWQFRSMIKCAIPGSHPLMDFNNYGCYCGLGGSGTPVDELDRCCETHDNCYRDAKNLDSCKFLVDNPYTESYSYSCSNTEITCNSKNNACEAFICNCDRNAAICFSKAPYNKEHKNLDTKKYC
Chain of mGV (P97391 21-137): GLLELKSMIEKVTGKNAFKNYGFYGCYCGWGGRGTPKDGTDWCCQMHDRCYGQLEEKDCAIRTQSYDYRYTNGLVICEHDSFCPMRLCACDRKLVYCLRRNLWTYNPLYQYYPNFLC
Chain of mGIIE (Q9QUL3 20-142): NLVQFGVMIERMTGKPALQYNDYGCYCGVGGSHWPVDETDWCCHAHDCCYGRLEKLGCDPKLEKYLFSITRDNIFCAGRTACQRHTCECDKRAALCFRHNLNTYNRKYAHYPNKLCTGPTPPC

CCc1c(C(=O)C(N)=O)c2c(OCC(=O)O)cccn2c1Cc1ccccc1-c1ccccc1 [indoxam]
IC50 [1]: 130 nM | IC50 [2]: 900 nM | PGE2 production [3]: inhibited | septic shock [4]: attenuated

CCc1c(C(=O)C(N)=O)c2c(OCC(=O)OC)cccc2n1Cc1ccccc1 [LY333013]
protection from colitis [5]: protected rats | effect on rheumatoid arthritis pathology, intravenous ([6]; administered intravenously): positive impacts on the pathology | effect on rheumatoid arthritis pathology, oral ([6]; orally distributed, patients with rheumatoid arthritis): significant reduction of the pathology during the first week of trial, but the benefits were lost thereafter | tolerability ([7]; in these patients): well tolerated | benefit on inhaled allergen challenge ([7]; subjects with asthma): failed to show any benefit

Cc1c(C(=O)C(N)=O)c2c(OCC(=O)O)cccc2n1Cc1ccccc1-c1ccccc1 [Me-indoxam]
potency to inhibit hGIIA relative to LY311727 [8]: about 20 fold

CCc1c(CC(N)=O)c2cc(OCCCP(=O)(O)O)ccc2n1Cc1ccccc1 [LY311727]
inhibition of release of thromboxane A2 [9]: able to inhibit | inhibition of sPLA2 activity induced by lipopolysaccharides [10]: could also inhibit | mortality [11]: earlier mortality | inflammation-related symptoms [12]: attenuated all the inflammation-related symptoms observed | PLA2 catalytic activity in blood [13]: loss of PLA2 catalytic activity in blood

CCc1c(C(=O)C(N)=O)c2c(OCC(=O)[O-])cccc2n1Cc1ccccc1.[Na+] [S-5920/LY315920Na]
clinical outcome versus placebo [14]: no significant differences

O=C(O)CC[C@@H](Cc1ccc(OCc2ccccc2)cc1)NC(=O)CCCCCCc1ccccc1 [5-(4-benzyloxyphenyl)-4s-(7-phenylheptanoylamino)-pentanoic acid]
protection from colitis [5]: protected rats | protection of intestine from ischemia and reperfusion injury [15]: preserved rats intestine from injury

CCCCCCCCCCCC(=O)c1c(O)c(C(=O)CCCCCCCCCCC)c(O)c(C2CC(c3ccc(O)cc3)Oc3cc(O)ccc32)c1O (stereo not shown) [YM-26734]
ear edema [16]: reduced | inhibition of mGIIA [17]: potent inhibitor | inhibition of mGIID [18]: potent inhibitor | inhibition of mGIIE [19]: potent inhibitor | inhibition of mGV [20]: potent inhibitor | inhibition of mGX [21]: potent inhibitor | accumulation of exudate fluid and leukocytes [22]: significantly decreased
